Results as given in US5175163A, “Triazolyl thioamide derivates” (Egis Gyogyszergyar, priority 1989, dated 1992).
Where two headings read alike, the source gives them in different places.

Legend:
reserpine ptosis on mice = assay: Antagonism of reserpine ptosis on mice; conditions: for ED50: Mus musculus, sc; for Therapeutical index: reserpine ptosis, mice, Table II
Method: Groups consisting of 10 mice each were treated with 6 mg/kg of reserpine, subcutaneously, according to the method of Hoffmeister et. al. [Arzneim. […] The animals with ptosis were counted 60 and 120 minutes after the administration of the compounds to be tested. Evaluation was carried out as given under the above test.

pentetrazole spasm = assay: Inhibition of pentetrazole spasm; format: in vivo; conditions: white mice; for ED50: Mus musculus, po, 1 h, orally, one hour before pentetrazole 125 mg/kg intraperitoneally, tonic extensoric spasms of the hind limbs; for Therapeutical index: pentetrazole spasm, Table III
[1] = system: nicotine spasm and lethality; assay: Inhibition of nicotine spasm and lethality; format: in vivo; conditions: for ED50: po, 1 h, orally, an hour before nicotine 1.4 mg/kg i.v., spasms and lethality within an hour
Method: The test was carried out according to the method of Stone. [Arch. Int. Pharmacodyn.

Hexobarbital narcosis = Hexobarbital narcosis potentiating effect; conditions: for ED50: Mus musculus, po, 1 h; for Therapeutical index: hexobarbital narcosis, white mice, Table V
Method: Groups consisting of six mice were used for each dose. The test compound was administered orally and one hour after this treatment narcosis was induced by means of a 40 mg/kg i.v. dose of hexobarbital. The control group received carrier instead of the test compound.
The ED50 values thus transformed were calculated.

[2] = Table III (pentetrazole spasm)
[3] = system: tetrabenazine ptosis on mice; conditions: mouse, in vivo, po
Method: (§1) Groups consisting of 10-20 mice each were treated perorally, with different doses of the compounds to be tested. The control group was treated only with the corresponding carrier. After 30 minutes tetrabenazine [3-isobutyl-9,10-dimethoxy-1,2,3,4,6,7-hexahydrobenzo[a]-quinolizine-2-one] was administered intraperitoneally at a dosage of 50 mg/kg. The number of animals having closed palpebral fissure was determined in each group after 30, 60, 90 and 120 minutes, resp.
(§2) The mean value of ptosis was calculated in each group, and the deviation from that of the control group (i.e. the inhibition) was expressed in percentage.

[4] = system: tetrabenazine ptosis on mice; assay: Antagonism of tetrabenazine ptosis on mice; conditions: Mus musculus, po
Method: as §1, §2

COc1ccc(CCNC(=S)n2nc(SC)nc2N)cc1OC [Example 6, 1-[5-Amino-3-methylthio-1H-1,2,4-triazol-1-yl]-N-[2-(3,4-dimethoxyphenyl)ethyl]carbothioamide]
LD50 (in vivo): > 2000 mg/kg
ED50 (reserpine ptosis on mice): 20 mg/kg
Therapeutical index (reserpine ptosis on mice): > 100

Nc1nc(N2CCOCC2)nn1C(=S)NCCCOc1cccc(CN2CCCCC2)c1 [Example 1, 1-(5-Amino-3-morpholino-1H-1,2,4-triazol-1-yl)-N-{3-[3-(1-piperidinylmethyl)phenoxyl]propyl}carbothioamide]
ED50 (pentetrazole spasm): 295 mg/kg
Therapeutical index (pentetrazole spasm): > 7
Therapeutical index ([1]; nicotine spasm and lethality, Table IV): > 29
ED50 [1]: 68 mg/kg
LD50 (in vivo): > 2000 mg/kg
ED50 (reserpine ptosis on mice): 17 mg/kg
Therapeutical index (reserpine ptosis on mice): > 117
ED50 (Hexobarbital narcosis): 50 mg/kg
Therapeutical index (Hexobarbital narcosis): > 40

CN(C)CCC=C1c2ccccc2CCc2ccccc21 [Amitryptiline, reference compound]
LD50 (in vivo): 225 mg/kg
ED50 (reserpine ptosis on mice): 65 mg/kg
Therapeutical index (reserpine ptosis on mice): 3.5

CN(C)c1nc(N)n(C(=S)NCCCOc2cccc(CN3CCCCC3)c2)n1 [Example 2, 1-[5-Amino-3-dimethylamino-1H-1,2,4-triazol-1-yl]-N-{3-[3-(1-piperidinylmethyl)phenoxy]propyl}carbothioamide]
ED50 (pentetrazole spasm): 64 mg/kg
Therapeutical index (pentetrazole spasm): > 15
LD50 [2]: > 1000 mg/kg
LD50 (in vivo): > 1000 mg/kg
ED50 (Hexobarbital narcosis): 110 mg/kg
Therapeutical index (Hexobarbital narcosis): > 9

OC(CCN1CCCCC1)(c1ccccc1)C1CCCCC1 (stereo not shown) [Trihexyphenidyl, reference compound]
ED50 [1]: 20 mg/kg

C=CCN(CC=C)c1nc(N)n(C(=S)NCCCOc2cccc(CN3CCCCC3)c2)n1 [Example 5, 1-[5-Amino-3-diallylamino-1H-1,2,4-triazol-1-yl]-N-{3-[3-(1-piperidinylmethyl)phenoxy]propyl}carbothioamide]
LD50 (in vivo): > 1000 mg/kg
ED50 (Hexobarbital narcosis): 200 mg/kg
Therapeutical index (Hexobarbital narcosis): > 5

CN1C(=O)OC(C)(C)C1=O [Trimethadion, reference compound]
LD50 [2]: 2050 mg/kg

CCCC(C)(COC(N)=O)COC(N)=O [Meprobamate, reference compound]
LD50 (in vivo): 1100 mg/kg
Therapeutical index (Hexobarbital narcosis): 4.1

CN1CCN(c2nc(N)n(C(=S)NCCCOc3cccc(CN4CCCCC4)c3)n2)CC1 [Example 3, 1-[5-Amino-3-(4-methylpiperazinyl)-1H-1,2,4-triazol-1-yl]-N-{3-[3-(1-piperidinylmethyl)phenoxy]propyl}carbothioamide]
Therapeutical index [3]: > 90
LD50 (in vivo): > 1000 mg/kg
ED50 [4]: 11 mg/kg
